# Assay results published in the supplement of paper PMC10307832.
# Experiments:
# Idelalisib + Palbociclib = compound: CC[C@H](Nc1ncnc2[nH]cnc12)c1nc2cccc(F)c2c(=O)n1-c1ccccc1 [Idelalisib] + CC(=O)c1c(C)c2cnc(Nc3ccc(N4CCNCC4)cn3)nc2n(C2CCCC2)c1=O [Palbociclib] (partner 0.5 µM); experiment: relative viability (nuclei count vs DMSO), 5 days (fraction); higher = more cells survive
# How it was run: (§1)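 Lung cancer cell lines, seeded in 1536-well plates, were treated the following day by pin tool with a single drug or with five library-drug doses (not always all listed) in √10 steps on top of a fixed anchor-drug dose. Cells were fixed and nuclei stained in one step after 5 days, and nuclei were counted. Relative viability is the nuclei count for treated wells divided by that for vehicle wells, reported as medians of duplicate plates.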
# Idelalisib + Pemetrexed = compound: CC[C@H](Nc1ncnc2[nH]cnc12)c1nc2cccc(F)c2c(=O)n1-c1ccccc1 [Idelalisib] + Nc1nc2[nH]cc(CCc3ccc(C(=O)N[C@@H](CCC(=O)O)C(=O)O)cc3)c2c(=O)[nH]1 [Pemetrexed] (partner 0.2 µM); experiment: as above
# How it was run: as §1
cell line,measurement,setting,value
NCI-H1648,relative viability,Idelalisib + Palbociclib; first compound 0.04 µM,0.239
same,relative viability,Idelalisib + Palbociclib; first compound 0.1265 µM,0.291
same,relative viability,Idelalisib + Palbociclib; first compound 0.4 µM,0.298
same,relative viability,Idelalisib + Palbociclib; first compound 1.265 µM,0.262
same,relative viability,Idelalisib + Palbociclib; first compound 4 µM,0.315
same,relative viability,Idelalisib + Pemetrexed; first compound 0.04 µM,0.711
same,relative viability,Idelalisib + Pemetrexed; first compound 0.1265 µM,0.76
same,relative viability,Idelalisib + Pemetrexed; first compound 0.4 µM,0.806
same,relative viability,Idelalisib + Pemetrexed; first compound 1.265 µM,0.749
same,relative viability,Idelalisib + Pemetrexed; first compound 4 µM,0.53
NCI-H1993,relative viability,Idelalisib + Palbociclib; first compound 0.04 µM,0.642
same,relative viability,Idelalisib + Palbociclib; first compound 0.1265 µM,0.743
same,relative viability,Idelalisib + Palbociclib; first compound 0.4 µM,0.49
same,relative viability,Idelalisib + Palbociclib; first compound 1.265 µM,0.523
same,relative viability,Idelalisib + Palbociclib; first compound 4 µM,0.491
same,relative viability,Idelalisib + Pemetrexed; first compound 0.04 µM,0.592
same,relative viability,Idelalisib + Pemetrexed; first compound 0.1265 µM,0.67
same,relative viability,Idelalisib + Pemetrexed; first compound 0.4 µM,0.548
same,relative viability,Idelalisib + Pemetrexed; first compound 1.265 µM,0.614
same,relative viability,Idelalisib + Pemetrexed; first compound 4 µM,0.59
NCI-H2405,relative viability,Idelalisib + Palbociclib; first compound 0.04 µM,0.539
same,relative viability,Idelalisib + Palbociclib; first compound 0.1265 µM,0.484
same,relative viability,Idelalisib + Palbociclib; first compound 0.4 µM,0.494
same,relative viability,Idelalisib + Palbociclib; first compound 1.265 µM,0.512
same,relative viability,Idelalisib + Palbociclib; first compound 4 µM,0.486
same,relative viability,Idelalisib + Pemetrexed; first compound 0.04 µM,1.13
same,relative viability,Idelalisib + Pemetrexed; first compound 0.1265 µM,1.06
same,relative viability,Idelalisib + Pemetrexed; first compound 0.4 µM,0.986
same,relative viability,Idelalisib + Pemetrexed; first compound 1.265 µM,0.974
same,relative viability,Idelalisib + Pemetrexed; first compound 4 µM,1.09
NCI-H661,relative viability,Idelalisib + Palbociclib; first compound 0.04 µM,0.417
same,relative viability,Idelalisib + Palbociclib; first compound 0.1265 µM,0.425
same,relative viability,Idelalisib + Palbociclib; first compound 0.4 µM,0.398
same,relative viability,Idelalisib + Palbociclib; first compound 1.265 µM,0.459
same,relative viability,Idelalisib + Palbociclib; first compound 4 µM,0.421
same,relative viability,Idelalisib + Pemetrexed; first compound 0.04 µM,0.973
same,relative viability,Idelalisib + Pemetrexed; first compound 0.1265 µM,0.926
same,relative viability,Idelalisib + Pemetrexed; first compound 0.4 µM,0.911
same,relative viability,Idelalisib + Pemetrexed; first compound 1.265 µM,0.952
same,relative viability,Idelalisib + Pemetrexed; first compound 4 µM,0.924
NCI-H2342,relative viability,Idelalisib + Palbociclib; first compound 0.04 µM,0.485
same,relative viability,Idelalisib + Palbociclib; first compound 0.1265 µM,0.495
same,relative viability,Idelalisib + Palbociclib; first compound 0.4 µM,0.484
same,relative viability,Idelalisib + Palbociclib; first compound 1.265 µM,0.519
same,relative viability,Idelalisib + Palbociclib; first compound 4 µM,0.473
same,relative viability,Idelalisib + Pemetrexed; first compound 0.04 µM,0.853
same,relative viability,Idelalisib + Pemetrexed; first compound 0.1265 µM,0.74
same,relative viability,Idelalisib + Pemetrexed; first compound 0.4 µM,0.717
same,relative viability,Idelalisib + Pemetrexed; first compound 1.265 µM,0.706
same,relative viability,Idelalisib + Pemetrexed; first compound 4 µM,0.765
